Legend:
[1] = Distribution of compounds in liver and blood of CD-1 mice; type: in vivo; settings: single oral dose; for Liver Concentration (@1.0 hour) / Plasma Concentration (@1.0 hour): 1 hour after administration; for Liver Concentration/Plasma Concentration (@1.0 hour) / Liver Concentration/Plasma Concentration (@4.0 hour): ratio; for Liver Concentration (@4.0 hour) / Plasma Concentration (@4.0 hour): 4 hours after administration
Experimental: Experimental purpose: distribution of compounds in liver and blood of CD-1 mice was tested;
CD-1 Mice (male, 25-35 g, 6-9 weeks old, Shanghai Slack);
Experimental procedure: after oral administration, the drug was distributed in the liver and blood of rodents, candidate compounds in the experiment were formulated into a clear solution to be administered to mice in a single oral dose. The oral solvent was a certain proportion of an aqueous solution of hydroxypropyl β-cyclodextrin or a physiological saline solution. The concentration of the drug in the liver and blood was measured at 1 hour and 4 hours after administration.

[2] = biological target: hERG potassium ion channel (Homo sapiens (Human), UniProt Q12809); assay: Inhibition test of hERG potassium ion channel (automatic patch clamp, CHO-hERG cells); type: cell-based; settings: conclusion in words
Chain of hERG potassium ion channel (Q12809 whole entry): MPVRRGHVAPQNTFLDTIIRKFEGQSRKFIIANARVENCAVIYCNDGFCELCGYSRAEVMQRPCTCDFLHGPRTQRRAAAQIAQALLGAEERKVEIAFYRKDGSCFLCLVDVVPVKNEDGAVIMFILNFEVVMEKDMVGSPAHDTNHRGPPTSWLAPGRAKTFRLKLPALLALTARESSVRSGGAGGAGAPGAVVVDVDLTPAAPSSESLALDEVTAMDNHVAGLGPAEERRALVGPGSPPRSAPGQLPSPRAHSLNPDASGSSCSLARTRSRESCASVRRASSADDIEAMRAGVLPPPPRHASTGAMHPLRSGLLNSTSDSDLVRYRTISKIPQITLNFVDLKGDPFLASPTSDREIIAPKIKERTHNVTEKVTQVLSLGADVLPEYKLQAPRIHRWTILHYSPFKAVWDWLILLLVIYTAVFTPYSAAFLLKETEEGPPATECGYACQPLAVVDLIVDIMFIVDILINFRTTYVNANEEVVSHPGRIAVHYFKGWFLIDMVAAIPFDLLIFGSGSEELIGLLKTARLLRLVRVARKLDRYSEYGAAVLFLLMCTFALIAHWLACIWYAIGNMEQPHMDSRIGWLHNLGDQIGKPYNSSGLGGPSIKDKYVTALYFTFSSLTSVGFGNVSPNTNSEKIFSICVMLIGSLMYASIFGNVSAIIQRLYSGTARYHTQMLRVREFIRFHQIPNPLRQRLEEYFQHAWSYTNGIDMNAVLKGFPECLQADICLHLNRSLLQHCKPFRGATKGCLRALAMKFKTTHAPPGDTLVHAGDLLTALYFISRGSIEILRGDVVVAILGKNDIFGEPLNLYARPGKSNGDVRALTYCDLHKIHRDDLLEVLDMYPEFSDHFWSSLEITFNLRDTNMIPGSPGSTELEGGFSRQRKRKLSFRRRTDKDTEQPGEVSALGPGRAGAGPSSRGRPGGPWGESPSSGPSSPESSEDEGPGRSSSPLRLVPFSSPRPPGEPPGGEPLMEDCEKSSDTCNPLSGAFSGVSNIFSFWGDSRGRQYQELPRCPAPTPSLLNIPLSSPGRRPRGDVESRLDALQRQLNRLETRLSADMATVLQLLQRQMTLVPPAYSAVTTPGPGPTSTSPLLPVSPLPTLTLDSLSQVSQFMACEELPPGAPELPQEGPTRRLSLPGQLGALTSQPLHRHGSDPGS
Experimental: The effect of the to-be-tested compound on the potassium ion channel of hERG was detected by a fully automatic patch clamp method.
The cells stably expressing hERG potassium channel used in the experiment were obtained from CHO-hERE of Aviva Biosciences, and CHO-hERG was cultured in 5% CO2 at 37° C.
CHO-hERG cells prepared for the experiment were cultured for at least two days, and the cell density reached 75% or more. Prior to the start of the experiment, cells were digested with TrypLE and then resuspended in extracellular fluid to collect the cells.
Extracellular fluids need to be prepared once a month. The intracellular fluid need to be subpackaged and frozen at −20° C.
The to-be-tested compound and the positive control Amitriptyline were dissolved in DMSO to a certain concentration of the stock solution, and then diluted according to different gradients, and finally added to the extracellular fluid in a certain ratio, and diluted to a concentration to be measured. Visual inspection was performed to see if there was any precipitation before the start of the experiment. Finally, the concentration of DMSO in the to-be-tested solution and the positive control Amitriptyline should not exceed 0.3%. […]
In each complete current record, based on the percentage of peak current in the negative control, the percent inhibition of the concentration of each compound can be calculated. […]

[3] = system: CCl4-induced chronic liver fibrosis male C57BL/6 model; assay: Oral CCl4-induced chronic liver fibrosis model; type: in vivo, C57BL/6 mice; settings: oral daily for 28 days, superior to PXS-4728A in the same dosage
Experimental: The therapeutic effect of compounds on an oral CCl4-induced chronic liver fibrosis male C57BL/6 model was tested.
Male C57BL/6 mice, 7-8 weeks old;
Experimental method: Male C57BL/6 mice were orally administered from the day CCl4 was put for modeling, and administered daily. Continuous administration was conducted for 28 days. The animals were fasted for at least 6 hours on the next day after the last administration Animal weight was measured during euthanasia and all animals were euthanized under the guidance of the KCl Animal Euthanasia SOP. Non-anticoagulant venous blood of mice was collected from the ocular venous plexus. The whole blood was allowed to stand at room temperature for 30 minutes, and centrifuged at 5000 rpm for 5 minutes, and the serum was separated and placed in a 1.5 ml EP tube and stored at −80° C. After the whole body of the animal was perfused with hypothermic saline, the liver was taken and subjected to tissue gross image acquisition. The left lobe of the liver was divided into 4 equal parts and put into 4 tissue cryotubes for liquid nitrogen freezing, and then transferred to −80° C. for storage. The rest of the liver tissue was fixed in 10% neutral formalin fixative. […] HE staining was subjected to double-blind score by two pathological readers, and the area of hepatic fibrosis was analyzed for sirius-red stained sections by digital pathology.

VAP-1/SSAO [4] = biological target: T1, VAP-1/SSAO (Homo sapiens (Human), UniProt Q16853); assay: Human VAP-1 enzyme activity assay (Amplex Red Monoamine Oxidase kit); type: biochemical; settings: 10 nM VAP-1 enzyme, 30 min preincubation, benzylamine substrate; read-out: Human Recombinant VAP-1/SSAO Enzyme Inhibitory Activity IC50
T1 sequence (Q16853 whole entry): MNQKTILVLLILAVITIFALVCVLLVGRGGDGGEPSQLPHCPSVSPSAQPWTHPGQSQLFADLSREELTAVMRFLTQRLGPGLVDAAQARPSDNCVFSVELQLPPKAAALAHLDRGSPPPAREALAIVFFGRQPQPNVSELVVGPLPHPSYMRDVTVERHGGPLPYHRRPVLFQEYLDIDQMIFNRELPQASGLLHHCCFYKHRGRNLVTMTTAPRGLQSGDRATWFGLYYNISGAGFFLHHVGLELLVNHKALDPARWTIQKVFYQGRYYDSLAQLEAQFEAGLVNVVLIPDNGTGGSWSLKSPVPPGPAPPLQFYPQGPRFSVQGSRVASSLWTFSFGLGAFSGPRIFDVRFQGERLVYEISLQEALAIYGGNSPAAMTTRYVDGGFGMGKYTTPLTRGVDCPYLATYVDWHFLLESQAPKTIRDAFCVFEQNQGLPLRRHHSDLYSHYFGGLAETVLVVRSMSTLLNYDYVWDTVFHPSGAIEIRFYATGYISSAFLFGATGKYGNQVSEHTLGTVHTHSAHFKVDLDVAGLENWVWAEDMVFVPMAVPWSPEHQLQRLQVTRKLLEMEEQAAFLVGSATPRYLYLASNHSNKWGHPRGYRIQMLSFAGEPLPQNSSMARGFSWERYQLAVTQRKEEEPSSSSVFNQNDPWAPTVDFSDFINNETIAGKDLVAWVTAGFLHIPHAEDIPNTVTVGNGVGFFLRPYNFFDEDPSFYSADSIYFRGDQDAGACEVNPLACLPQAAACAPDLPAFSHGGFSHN
Experimental: Human VAP-1 Enzyme Activity Assay:
The inhibition of the sample on VAP-1 enzyme activity was measured by using an Amplex® Red Monoamine Oxidase kit (Invitrogen #A12214). 100 nL of the gradiently-diluted to-be-tested compound (solvent DMSO) was added to a 384-well plate. 25 μL of 10 nM VAP-1 enzyme solution was added and incubated for 30 minutes at room temperature. A substrate mixture of VAP-1 enzyme (200 μM Amplex Red, 1 U/mL HRP, 1 mM Benzylamine) was added and incubated for 60 minutes at room temperature. After the incubation, the fluorescent signal was read with a microplate reader Envision (excitation light wavelength 530-560 nm, emission light wavelength 590 nm). The fluorescence signal value after the background signal was removed was analyzed by Prism software, and the IC50 of the sample against the VAP-1 enzyme was calculated.

VAP-1/SSAO [5] = biological target: T1, VAP-1/SSAO; assay: VAP-1 cell activity assay (HUVEC or CHO cells transfected with VAP-1/pCDNA(3.1) plasmid, Amplex Red); type: cell-based; settings: HUVEC or CHO cells transfected with VAP-1 plasmid; read-out: VAP-1/SSAO Cellular Inhibitory Activity IC50
Experimental: The inhibition of the sample on VAP-1 cell activity was measured by using an Amplex® Red Monoamine Oxidase kit (Invitrogen #A12214).
The cultured HUVEC or CHO cells were plated into a 6-well plate at a density of 0.8 M/well, placed in a 37° C., 5% CO2 incubator for incubation for 24 hours, and then the cells was transferred with a Lipo2000 reagent and a VAP-1/pCDNA (3.1) plasmid, and liquid was changed for the cells after 5 hours (Lipo2000 was toxic to the cells); after 24 hours, the cells were digested and plated into 384-well plates with a density of 25 μl, 10000 cells/well, and liquid was replaced with medium without FBS for the cells after 6-7 hours, and the cell plates were incubated overnight at 37° C. in a 5% CO2 incubator.
1) Dilution of the compound: serial dilution in 4× gradient was carried out with 100% DMSO, 10 points were diluted, the starting concentration of the to-be-tested compound was 0.5 mM (final concentration was 1) μM); 100 nl of compound solution was transferred to a 384-well cell assay plate with ECHO. […]
5) The reaction was carried out in the dark at room temperature for 60 minutes, and the fluorescence value was measured by Envision: the excitation wave was 535 nm, and the emission wave was 590 nm. […]
7) The data were analyzed with Prism. The IC50 of the sample against VAP-1 cells was calculated.

## CC(C)(C)NC(=O)c1ccc(OC/C(=C/F)CN)cc1.Cl [PXS-4728A, reference compound]
[1]
  Liver Concentration (@1.0 hour): 13140
  Plasma Concentration (@1.0 hour): 1470
  Liver Concentration/Plasma Concentration (@1.0 hour): 10
  Liver Concentration (@4.0 hour): 2120
  Plasma Concentration (@4.0 hour): 154
  Liver Concentration/Plasma Concentration (@4.0 hour): 14

## Cc1noc(-c2ccc(OC/C(=C/F)CN)cc2)n1.Cl [WX008]
[2]
  inhibition of hERG potassium current: weak inhibition

## Cl.Cn1nc(-c2ccc(OC/C(=C/F)CN)cc2)nc1C(F)F [WX126]
[1]
  Liver Concentration (@1.0 hour): 13520
  Plasma Concentration (@1.0 hour): 934
  Liver Concentration/Plasma Concentration (@1.0 hour): 15
  Liver Concentration (@4.0 hour): 3364
  Plasma Concentration (@4.0 hour): 190
  Liver Concentration/Plasma Concentration (@4.0 hour): 17
[3]
  effect on liver fibrosis (Sirius-Red staining): obvious improvement effect
  effect on liver injury (liver injury score, HE staining): obvious improvement effect
[2]
  inhibition of hERG potassium current: weak inhibition

## Cn1nc(-c2ccc(OC/C(=C/F)CN)cc2F)nc1C1CC1 [WX098]
VAP-1/SSAO [4]
  IC50: 1.8 nM
VAP-1/SSAO [5]
  IC50: 0.2 nM
